# Assay results published in patent publication US20020133846A1, “Method for protecting plants” (priority 1996, published 2002).
# Read-outs that look alike come from different tables or passages of the source.
# Legend:
# Peronospora tabacina = experiment: Action against Peronospora tabacina on tobacco plants
# Method: Tobacco plants (6 weeks old) were sprayed with a formulated solution of the test compound. Four days after treatment, the plants were inoculated with a sporangia suspension of the fungus, kept at high humidity for 4 to 5 days and then incubated further under a normal day/night sequence. Evaluation of the symptoms in the tests was based on the leaf surface infested with fungus. The infestation of the untreated plants corresponded to 0 % action.
# Colletotrichum sp. = experiment: Action against Colletotrichum sp. (anthracnose) on chili, field; type: in vivo; details: Table 16, chili fruits after fifth spraying, comp. II alone 100 ppm
# Text: Effects on crop yield: In a plot of land about 10 m^2 (test location: Cikampek, Java, Indonesia), chili plants were sprayed a total of 7 times at intervals of about 7 days with 500-700 liters of spray mixture per hectare. Three days after the first spraying, the plants were infected artificially with the fungus.
# Cercospora sp. = experiment: Action against Cercospora sp. (leaf spot) on chili, field; type: in vivo; details: Table 17, leaves after sixth spraying, comp. II alone 100 ppm
# [1] = Action on crop yield of chili, field; type: in vivo; details: in vivo
# Puccinia recondita = experiment: Action against Puccinia recondita in wheat
# Method: 7-day-old wheat plants were sprayed to drip point with a spray mixture prepared from a formulated active ingredient, or combination of active ingredients. After 4 days, the treated plants were infected with a conidia suspension of the fungus, and the treated plants were subsequently incubated for 2 days at a relative atmospheric humidity of 90-100% and 20 C. 10 days post-infection, the fungus infestation was assessed.
# Mycosphaerella fijiensis = experiment: Action against Mycosphaerella fijiensis in bananas; details: Table 23, comp. II alone 50 g a.i. per ha
# Method: 40 banana plants in a 300 m^2 plot were sprayed at 17-19 day intervals with a spray mixture prepared with the wettable powder of the active ingredient; in total 6 times. Infection was naturally. For evaluation, the leaf infested with the fungus was measured.
# Erysiphe graminis [2] = experiment: Action against Erysiphe graminis in wheat, field trials
# Method: In field trials (10 m^2), winter wheat in the growth phase was sprayed with a spray mixture prepared with a wettable powder of the active ingredient. Infection was naturally. 10 days post-infection, the fungus infestation was assessed.
# [3] = system: Colletotrichum lagenarium; experiment: Action against Colletotrichum lagenarium on Cucumis sativus L., foliar application; type: in vivo
# [4] = system: Colletotrichum lagenarium; experiment: Action against Colletotrichum lagenarium on Cucumis sativus L., soil application; type: in vivo
# Cercospora nicotianae = experiment: Action against Cercospora nicotianae on tobacco plants; type: in vivo
# Phytophthora infestans = type: in vivo
# [5] = system: Pseudoperonospora cubensis; experiment: Action against Pseudoperonospora cubensis in cucumbers; type: in vivo
# Erysiphe graminis [6] = experiment: Action against Erysiphe graminis on barley (residual-protective / systemic)
# Method: Residual-protective action: Barley plants about 8 cm in height were sprayed to drip point with an aqueous spray mixture (max. 0.02 % active ingredient) and were dusted 3 to 4 days later with conidia of the fungus. The infected plants were stood in a greenhouse at 22°. Fungus infestation was generally evaluated 10 days after infection.
# Systemic action: Barley plants about 8 cm in height were watered with an aqueous spray mixture (max. 0.002 % active ingredient, based on the volume of the soil). […] The plants were dusted with conidia of the fungus 3 to 4 days later. The infected plants were stood in a greenhouse at 22°. Fungus infestation was generally evaluated 10 days after infection.
# Alternaria solani = experiment: Action against Alternaria solani in tomatoes in the open
# Method: Tomato plants on a 7 m^2 plot were sprayed at 7-day intervals with a spray mixture prepared wettable powder of the active ingredient; in total 9 times. Infection was naturally. For ion, the leaf infested with the fungus was measured.
# [7] = system: Peronospora parasitica NoCo2; experiment: Action against Peronospora parasitica NoCo2 in Arabidopsis thaliana (Col-0), rRNA fungal probe; type: in vivo; details: Table 29, Col-0, metalaxyl alone 0.1 mg/l
# [8] = system: Peronospora parasitica Emwa; experiment: Action against Peronospora parasitica Emwa in Arabidopsis thaliana (Ws), rRNA fungal probe; type: in vivo; details: Hyaloperonospora parasitica, in Arabidopsis thaliana, Table 30, Ws, read-out: Fungal Growth Inhibition % O (observed)
# [9] = system: Peronospora parasitica NoCo2; experiment: whole plant or invertebrate; type: in vivo; details: Hyaloperonospora parasitica, in Arabidopsis thaliana, read-out: Fungal Growth Inhibition % O (observed), Table 33, wt Col-0, metalaxyl 12.5 mg/l
# [10] = system: Peronospora parasitica isolate Emwa; experiment: Action against Peronospora parasitica in Arabidopsis overexpressing NIM1 (lines 6E, 7C) and wild-type Ws; type: in vivo; details: Hyaloperonospora parasitica, in Arabidopsis thaliana, Table 36, wt Ws, read-out: Fungal Growth Inhibition % O (observed)
# Text: The plant lines used in this example (6E and 7C) were generated from transformation of wild-type Arabidopsis thaliana plants (ecotype Ws) with the BamHI-HindIII NIM1 genomic fragment (SEQ ID NO:1—bases 1249-5655), as described above in Example 21. The fungicides metalaxyl, fosetyl, and copper hydroxide, formulated as 25%, 80%, and 70% active ingredient (ai), respectively, with a wettable powder carrier, were applied as fine mist to leaves of three week-old transgenic Ws plants constitutively expressing the NIM1 gene. The wettable powder alone was applied as a control. Three days later, plants were inoculated with a Peronospora parasitica isolate Emwa conidial suspension (1-2×10^5 spores/ml), as described in Delaney et al. (1995). Following inoculation, plants were covered to maintain high humidity and were placed in a Percival growth chamber at 17° C. with a 14-hr day/10-hr night cycle (Uknes et al., 1993). Tissue was harvested 8 days after inoculation.
# Fungal infection progression was followed for 12 days by viewing under a dissecting microscope to score development of conidiophores (Delaney, et al. (1994); Dietrich, et al. (1994)). Lactophenoltrypan blue staining of individual leaves was carried out to observe fungal growth within leaf tissue. Fungal growth was quantified using a rRNA fungal probe obtained by PCR according to White et al. (1990; PCR Protocols: A guide to Methods and Application, 315-322) using primers NS1 and NS2 and P. parasitica EmWa DNA as templates. RNA was purified from frozen tissue by phenol/chloroform extraction following lithium chloride precipitation (Lagrimini et al, 1987: PNAS, 84: 7542-7546). Samples (7.5 μg) were separated by electrophoresis through formaldehyde agarose gels and blotted to nylon membranes (Hybond-N+, Amersham) as described by Ausbel et al. (1987). Hybridizations and washing were according to Church and Gilbert (1984, PNAS, 81: 1991-1995). Relative amounts of the transcript were determined using a Phosphor Imager (Molecular Dynamics, Sunnyvale, Calif.) following manufacturers instructions. Sample loading was normalized by probing stripped filter blots with the constitutively expressed b-tubulin Arabidopsis cDNA.
# Pyricularia oryzae = type: in vivo
compound,measurement,setting,value
"COc1ccc(C(=CC(=O)N2CCOCC2)c2ccc(Cl)cc2)cc1OC [dimethomorph, 4-[3-(4-chlorophenyl)-3-(3,4-dimethoxyphenyl)acryloyl]morpholine]",% action O (observed),"Peronospora tabacina; Table 28, comp. II alone 0.3 ppm",52%
same,% action O (observed),"Peronospora tabacina; Table 28, comp. II alone 1 ppm",52%
manganese ethylenebis(dithiocarbamate)polymer-zinc complex [mancozeb],% action O (observed),Colletotrichum sp.,12%
same,% action O (observed),Cercospora sp.,8%
same,Crop yield in kg per hectare O (observed),[1],8 kg per hectare
"CCCC1COC(Cn2cncn2)(c2ccc(Cl)cc2Cl)O1 (stereo not drawn) [propiconazole, 1-[2-(2,4-dichlorophenyl)-4-propyl-1,3-dioxolan-2-ylmethyl]-1H-1,2,4-triazole]",% action O (observed),"Puccinia recondita; Table 19, comp. II alone 5 mg a.i. per liter",10%
same,% action O (observed),Mycosphaerella fijiensis,26%
same,% action O (observed),"Erysiphe graminis [2]; Table 21, comp. II alone 50 g a.i. per ha",2%
same,% action O (observed),"Erysiphe graminis [2]; Table 21, comp. II alone 100 g a.i. per ha",31%
O=C(O)c1cccc2nnsc12 [benzothiadiazole-7-carboxylic acid],% action O (observed),"[3]; Table 4, comp. I alone 0.2 ppm",5%
same,% action O (observed),"[3]; Table 4, comp. I alone 2 ppm",22%
same,% action O (observed),"[3]; Table 6, comp. I alone 0.2 ppm",3%
same,% action O (observed),"[3]; Table 6, comp. I alone 0.6 ppm",51%
same,% action O (observed),"[3]; Table 7, comp. I alone 0.06 ppm",16%
same,% action O (observed),"[3]; Table 7, comp. I alone 0.2 ppm",22%
same,% action O (observed),"[3]; Table 7, comp. I alone 6 ppm",60%
same,% action O (observed),"[4]; Table 5, comp. I alone 0.006 ppm",0%
same,% action O (observed),"[4]; Table 5, comp. I alone 0.02 ppm",40%
same,% action O (observed),"[4]; Table 5, comp. I alone 0.06 ppm",49%
same,% action O (observed),"[4]; Table 5, comp. I alone 0.2 ppm",91%
same,% action O (observed),"Cercospora nicotianae; Table 11, comp. I alone 0.2 kg a.i. per ha",0%
same,% action O (observed),"Cercospora nicotianae; Table 11, comp. I alone 0.6 kg a.i. per ha",3%
same,% action O (observed),"Cercospora nicotianae; Table 11, comp. I alone 2 kg a.i. per ha",69%
same,% action O (observed),"Cercospora nicotianae; Table 11, comp. I alone 6 kg a.i. per ha",79%
same,% action O (observed),"Cercospora nicotianae; Table 12, comp. I alone 2 kg a.i. per ha",69%
same,% action O (observed),"Cercospora nicotianae; Table 12, comp. I alone 6 kg a.i. per ha",79%
same,% action O (observed),"Cercospora nicotianae; Table 12, comp. I alone 20 kg a.i. per ha",100%
same,% action O (observed),"Phytophthora infestans; Table 26, comp. I alone 0.1 mg a.i. per liter",0%
same,% action O (observed),"Phytophthora infestans; Table 26, comp. I alone 0.5 mg a.i. per liter",9%
same,% action O (observed),"Phytophthora infestans; Table 26, comp. I alone 1 mg a.i. per liter",22%
same,% action O (observed),"Phytophthora infestans; Table 26, comp. I alone 5 mg a.i. per liter",45%
same,% action O (observed),"[5]; Table 27, comp. I alone 0.05 mg a.i. per liter",0%
same,% action O (observed),"[5]; Table 27, comp. I alone 0.5 mg a.i. per liter",6%
same,% action O (observed),"[5]; Table 27, comp. I alone 5 mg a.i. per liter",66%
same,% action O (observed),"Puccinia recondita; Table 20, comp. I alone 6 kg a.i. per ha",20%
same,% action O (observed),"Puccinia recondita; Table 20, comp. I alone 20 kg a.i. per ha",40%
same,% action O (observed),"Erysiphe graminis [6]; Table 1, comp. I alone 0.6 ppm",0%
same,% action O (observed),"Erysiphe graminis [6]; Table 1, comp. I alone 2 ppm",40%
same,% action O (observed),"Erysiphe graminis [6]; Table 1, comp. I alone 6 ppm",89%
same,% action O (observed),"Erysiphe graminis [6]; Table 2, comp. I alone 0.6 ppm",14%
same,% action O (observed),"Erysiphe graminis [6]; Table 2, comp. I alone 2 ppm",27%
"Cc1cc(C2CC2)nc(Nc2ccccc2)n1 [cyprodinil, 4-cyclopropyl-6-methyl-N-phenyl-2-pyrimidinamine]",% action O (observed),"Erysiphe graminis [2]; Table 22, comp. II alone 50 g a.i. per ha",2%
same,% action O (observed),"Erysiphe graminis [2]; Table 22, comp. II alone 100 g a.i. per ha",31%
same,% action O (observed),"Alternaria solani; Table 24, comp. II alone 12.5 g a.i. per ha",30%
same,% action O (observed),"Alternaria solani; Table 24, comp. II alone 25 g a.i. per ha",51%
COCC(=O)N(c1c(C)cccc1C)C(C)C(=O)OC (racemic) [metalaxyl],% action O (observed),"Phytophthora infestans; Table 25, comp. II alone 0.1 mg a.i. per liter",13%
same,% action O (observed),"Phytophthora infestans; Table 25, comp. II alone 1 mg a.i. per liter",23%
same,% action O (observed),"Phytophthora infestans; Table 25, comp. II alone 10 mg a.i. per liter",35%
same,% action O (observed),"Phytophthora infestans; Table 25, comp. II alone 50 mg a.i. per liter",68%
same,% action O (observed),"Phytophthora infestans; Table 26, comp. II alone 1 mg a.i. per liter",13%
same,% action O (observed),"Phytophthora infestans; Table 26, comp. II alone 10 mg a.i. per liter",33%
same,% action O (observed),"Phytophthora infestans; Table 26, comp. II alone 50 mg a.i. per liter",63%
same,% action O (observed),"Phytophthora infestans; Table 26, comp. II alone 100 mg a.i. per liter",83%
same,% action O (observed),"[5]; Table 27, comp. II alone 0.5 mg a.i. per liter",31%
same,% action O (observed),"[5]; Table 27, comp. II alone 5 mg a.i. per liter",66%
same,% action O (observed),"[5]; Table 27, comp. II alone 50 mg a.i. per liter",91%
same,inhibition at 0.1 µg/mL,"[7]; Hyaloperonospora parasitica, in Arabidopsis thaliana, read-out: Fungal Growth Inhibition % O (observed)",0%
same,Fungal Growth Inhibition % O (observed),[7],no fungal growth inhibition
same,inhibition at 0.1 µg/mL,[8]; metalaxyl alone 0.1 mg/l,50%
same,inhibition at 0.5 µg/mL,[8]; metalaxyl alone 0.5 mg/l,50%
same,inhibition at 2.5 µg/mL,[8]; metalaxyl alone 2.5 mg/l,75%
same,inhibition at 12.5 µg/mL,[9],52.7%
same,inhibition at 1.2 µg/mL,[10]; metalaxyl 0.0012 g/l,27%
same,inhibition at 12.5 µg/mL,[10]; metalaxyl 0.0125 g/l,59%
"O=C1CCc2cccc3c2N1CC3 [Compound IIJ, 1,2,5,6-tetrahydro-4H-pyrrolo[3,2,1-ij]quinolin-4-one]",% action O (observed),"Pyricularia oryzae; Table 14, comp. II alone 0.75 kg a.i. per ha",46%
same,% action O (observed),"Pyricularia oryzae; Table 14, comp. II alone 1.5 kg a.i. per ha",82%
